According to patent publication US12421254B2, “KRAS modulators and uses thereof” (Quanta Therapeutics, Inc., priority 2023, dated 2025):

How the values were obtained:
[1] = biological target: GST-tagged KRAS-G12D (2-169) (Homo sapiens, UniProt P01116, G12D); assay: Nucleotide exchange assay (NEA), SOS-mediated, HTRF, KRAS G12D; type: biochemical; conditions: Table 4; IC50 extracted at 30 min; 20 nM SOScat; read-out: NEA G12D IC50
Summary of the method: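 Compound preincubated 1 h at RT with 0.25 nM GST-KRAS-G12D (2-169) and anti-GST Tb donor, then 20 nM SOS1cat (564-1049) and 150 nM GTP-DY-647P1 added; pH 7.3 HEPES buffer with MgCl2 and DTT. HTRF monitored at RT; % inhibition versus DMSO and no-SOS blank, 4-parameter IC50 taken at 30 min.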

[2] = biological target: GST-tagged KRAS-G12V (2-169) (Homo sapiens, UniProt P01116, G12V); assay: Nucleotide exchange assay (NEA), SOS-mediated, HTRF, KRAS G12V; type: biochemical; conditions: Table 4; IC50 extracted at 90 min; 80 nM SOS
Summary of the method: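 GST-KRAS-G12V (2-169), 0.25 nM, pre-incubated 1 h at RT with compound, then SOS1cat (564-1049) 80 nM and GTP-DY-647P1 150 nM added in HEPES pH 7.3 buffer with MgCl2 and DTT. HTRF via anti-GST Tb cryptate read over 90 min; IC50 from 4-parameter fit at 90 min, blanked to no-SOS reactions.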

Sequence of GST-tagged KRAS-G12D (2-169) (P01116 2-169 isoform P01116-2 G12D): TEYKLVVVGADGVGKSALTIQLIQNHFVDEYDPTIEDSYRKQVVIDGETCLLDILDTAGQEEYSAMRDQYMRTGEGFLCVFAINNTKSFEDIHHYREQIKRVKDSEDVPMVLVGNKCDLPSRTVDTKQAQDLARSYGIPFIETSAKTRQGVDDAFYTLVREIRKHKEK
Sequence of GST-tagged KRAS-G12V (2-169) (P01116 2-169 isoform P01116-2 G12V): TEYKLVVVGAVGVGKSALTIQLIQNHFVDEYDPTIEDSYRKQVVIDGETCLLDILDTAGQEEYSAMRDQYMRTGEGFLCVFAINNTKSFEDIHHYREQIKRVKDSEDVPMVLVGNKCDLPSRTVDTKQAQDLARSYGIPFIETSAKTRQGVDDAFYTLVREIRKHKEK

Work on `C[C@@]1(CO)C[C@H](O)CN1c1nc(OC[C@@]23CCCN2C[C@H](F)C3)nc(N2CC3(CCc4sc(N)c(C#N)c43)C2)n1` [Compound 66, 2-amino-1′-[4-[[(2R,8S)-2-fluoro-1,2,3,5,6,7-hexahydropyrrolizin-8-yl]methoxy]-6-[(2S,4S)-4-hydroxy-2-(hydroxymethyl)-2-methyl-pyrrolidin-1-yl]-1,3,5-triazin-2-yl]spiro[5,6-dihydrocyclopenta[b]thiophene-4,3′-azetidine]-3-carbonitrile] yielded an IC50 [1] of 0.1 to 1 µM and an IC50 [2] of 0.01 to 0.1 µM.

For `N#Cc1c(N)sc2c1C1(CC2)CN(c2nc(N[C@@H]3COC[C@@H]3O)nc(OC[C@@]34CCCN3C[C@H](F)C4)n2)C1` (racemic) [Compound 103, 2-amino-1′-[4-[[(2R,8S)-2-fluoro-1,2,3,5,6,7-hexahydropyrrolizin-8-yl]methoxy]-6-[[rac-(3R,4R)-4-hydroxytetrahydrofuran-3-yl]amino]-1,3,5-triazin-2-yl]spiro[5,6-dihydrocyclopenta[b]thiophene-4,3′-azetidine]-3-carbonitrile], the IC50 [1] was 1 to 20 µM and the IC50 [2] was 0.1 to 1 µM.

`N#Cc1c(N)sc2c1C1(CC2)CN(c2nc(OC[C@@]34CCCN3C[C@H](F)C4)nc(O[C@@H]3COC[C@@H]3O)n2)C1` (racemic) [Compound 28, 2-amino-1′-[4-[[(2R,8S)-2-fluoro-1,2,3,5,6,7-hexahydropyrrolizin-8-yl]methoxy]-6-[rac-(3R,4S)-4-hydroxytetrahydrofuran-3-yl]oxy-1,3,5-triazin-2-yl]spiro[5,6-dihydrocyclopenta[b]thiophene-4,3′-azetidine]-3-carbonitrile] showed an IC50 [1] of 1 to 20 µM and an IC50 [2] of 0.1 to 1 µM.

In the case of `N#Cc1c(N)sc2c1C1(CC2)CN(c2nc(OC[C@@]34CCCN3C[C@H](F)C4)nc(N(CCO)Cc3c[nH]nc3Cl)n2)C1` [Compound 151, 2-amino-1′-[4-[(3-chloro-1H-pyrazol-4-yl)methyl-(2-hydroxyethyl)amino]-6-[[(2R,8S)-2-fluoro-1,2,3,5,6,7-hexahydropyrrolizin-8-yl]methoxy]-1,3,5-triazin-2-yl]spiro[5,6-dihydrocyclopenta[b]thiophene-4,3′-azetidine]-3-carbonitrile], the IC50 [1] is reported as 1 to 20 µM and the IC50 [2] is reported as 0.1 to 1 µM.

`CC(c1n[nH]cc1N)N(C)c1nc(OC[C@@]23CCCN2C[C@H](F)C3)nc(N2CC3(C2)SCc2sc(N)c(C#N)c23)n1` (stereo partly drawn) [Compound 192, 2-amino-1′-[4-[1-(4-amino-1H-pyrazol-3-yl)ethyl-methyl-amino]-6-[[(2R,8S)-2-fluoro-1,2,3,5,6,7-hexahydropyrrolizin-8-yl]methoxy]-1,3,5-triazin-2-yl]spiro[6H-thieno[2,3-c]thiophene-4,3′-azetidine]-3-carbonitrile] showed an IC50 [1] of 0.1 to 1 µM and an IC50 [2] of 0.01 to 0.1 µM.

In the case of `CC(c1nsnc1N)N(C)c1nc(OC[C@@]23CCCN2C[C@H](F)C3)nc(N2CC3(C2)SCc2sc(N)c(C#N)c23)n1` (single isomer, unassigned) [Compound 184B, 2-amino-1′-[4-[[(1*)-1-(4-amino-1,2,5-thiadiazol-3-yl)ethyl]-methyl-amino]-6-[[(2R,8S)-2-fluoro-1,2,3,5,6,7-hexahydropyrrolizin-8-yl]methoxy]-1,3,5-triazin-2-yl]spiro[6H-thieno[2,3-c]thiophene-4,3′-azetidine]-3-carbonitrile], the IC50 [1] is reported as 0.1 to 1 µM and the IC50 [2] is reported as 0.01 to 0.1 µM.

Compound `N#Cc1c(N)sc2c1C1(CC2)CN(c2nc(OC[C@@]34CCCN3C[C@H](F)C4)nc(N(CCO)Cc3cc[nH]n3)n2)C1` [Compound 131, 2-amino-1′-[4-[[(2R,8S)-2-fluoro-1,2,3,5,6,7-hexahydropyrrolizin-8-yl]methoxy]-6-[2-hydroxyethyl(1H-pyrazol-5-ylmethyl)amino]-1,3,5-triazin-2-yl]spiro[5,6-dihydrocyclopenta[b]thiophene-4,3′-azetidine]-3-carbonitrile] has an IC50 [1] of 0.1 to 1 µM and an IC50 [2] of 0.01 to 0.1 µM.

`N#Cc1c(N)sc2c1C1(CC2)CN(c2nc(OC[C@@]34CCCN3C[C@H](F)C4)nc(N3CCC[C@@H](O)C3)n2)C1` [Compound 23, 2-amino-1′-[4-[[(2R,8S)-2-fluoro-1,2,3,5,6,7-hexahydropyrrolizin-8-yl]methoxy]-6-[(3R)-3-hydroxy-1-piperidyl]-1,3,5-triazin-2-yl]spiro[5,6-dihydrocyclopenta[b]thiophene-4,3′-azetidine]-3-carbonitrile] showed an IC50 [1] of 0.1 to 1 µM and an IC50 [2] of 0.1 to 1 µM.

`CCN(c1nc(OC[C@@]23CCCN2C[C@H](F)C3)nc(N2CC3(C2)c2c(sc(N)c2C#N)CN3CC#N)n1)[C@H](C)c1cccnc1N` [Compound 228, 2-amino-1′-[4-[[(1R)-1-(2-amino-3-pyridyl)ethyl]-ethyl-amino]-6-[[(2R,8S)-2-fluoro-1,2,3,5,6,7-hexahydropyrrolizin-8-yl]methoxy]-1,3,5-triazin-2-yl]-5-(cyanomethyl)spiro[6H-thieno[2,3-c]pyrrole-4,3′-azetidine]-3-carbonitrile] showed an IC50 [1] of 1 to 20 µM and an IC50 [2] of 0.1 to 1 µM.

In the case of `CCN(c1nc(OC[C@]2(C(F)F)CCCN2)nc(N2CC3(C2)SCc2sc(N)c(C#N)c23)n1)[C@H](C)c1cccnc1N` [Compound 221, 2-amino-1′-[4-[[(1R)-1-(2-amino-3-pyridyl)ethyl]-ethyl-amino]-6-[[(2S)-2-(difluoromethyl)pyrrolidin-2-yl]methoxy]-1,3,5-triazin-2-yl]spiro[6H-thieno[3,4-b]thiophene-4,3′-azetidine]-3-carbonitrile], the IC50 [1] is reported as under 0.01 µM and the IC50 [2] is reported as under 0.01 µM.

`N#Cc1c(N)sc2c1C1(CC2)CN(c2nc(OC[C@@]34CCCN3C[C@H](F)C4)nc(OC3CCOC3)n2)C1` (stereo partly drawn) [Compound 78, 2-amino-1′-[4-[[(2R,8S)-2-fluoro-1,2,3,5,6,7-hexahydropyrrolizin-8-yl]methoxy]-6-tetrahydrofuran-3-yloxy-1,3,5-triazin-2-yl]spiro[5,6-dihydrocyclopenta[b]thiophene-4,3′-azetidine]-3-carbonitrile; formic acid] showed an IC50 [1] of 1 to 20 µM and an IC50 [2] of 0.1 to 1 µM.

`C[C@H](c1cccnc1N)N(CC(F)F)c1nc(OC[C@@H]2C[C@@H](F)CN2C)nc(N2CC3(C2)SCc2sc(N)c(C#N)c23)n1` [Compound 197, 2′-amino-1-(4-(((R)-1-(2-aminopyridin-3-yl)ethyl)(2,2-difluoroethyl)amino)-6-(((2S,4R)-4-fluoro-1-methylpyrrolidin-2-yl)methoxy)-1,3,5-triazin-2-yl)-6′H-spiro[azetidine-3,4′-thieno[3,4-b]thiophene]-3′-carbonitrile] showed an IC50 [1] of under 0.01 µM and an IC50 [2] of under 0.01 µM.

In the case of `N#CCC12CC1CN(c1nc(OC[C@@]34CCCN3C[C@H](F)C4)nc(N3CC4(CCc5sc(N)c(C#N)c54)C3)n1)C2` (stereo partly drawn) [Compound 42, 2-amino-1′-[4-[1-(cyanomethyl)-3-azabicyclo[3.1.0]hexan-3-yl]-6-[[(2R,8S)-2-fluoro-1,2,3,5,6,7-hexahydropyrrolizin-8-yl]methoxy]-1,3,5-triazin-2-yl]spiro[5,6-dihydrocyclopenta[b]thiophene-4,3′-azetidine]-3-carbonitrile], the IC50 [1] is reported as 1 to 20 µM and the IC50 [2] is reported as 0.1 to 1 µM.

Compound `N#Cc1c(N)sc2c1C1(CCC2)CN(c2nc(OCC3(C#N)CC3)nc(OC[C@@]34CCCN3C[C@H](F)C4)n2)C1` [Compound 54, 2-amino-1′-[4-[(1-cyanocyclopropyl)methoxy]-6-[[(2R,8S)-2-fluoro-1,2,3,5,6,7-hexahydropyrrolizin-8-yl]methoxy]-1,3,5-triazin-2-yl]spiro[6,7-dihydro-5H-benzothiophene-4,3′-azetidine]-3-carbonitrile] has an IC50 [1] of 0.1 to 1 µM and an IC50 [2] of 0.01 to 0.1 µM.

Compound `N#Cc1c(N)sc2c1C1(CN(c3nc(OC[C@@]45CCCN4C[C@H](F)C5)nc(N4CC5CC(=O)CC(C4)N5)n3)C1)SC2` [Compound 277, 2-amino-1′-[4-[[(2R,8S)-2-fluoro-1,2,3,5,6,7-hexahydropyrrolizin-8-yl]methoxy]-6-(7-oxo-3,9-diazabicyclo[3.3.1]nonan-3-yl)-1,3,5-triazin-2-yl]spiro[6H-thieno[3,4-b]thiophene-4,3′-azetidine]-3-carbonitrile] has an IC50 [1] of 0.01 to 0.1 µM and an IC50 [2] of under 0.01 µM.

For `C[C@H](c1cccnc1N)N(CC(F)F)c1nc(OCC2(CN(C)C)CC2(F)F)nc(N2CC3(C2)SCc2sc(N)c(C#N)c23)n1` (stereo partly drawn) [Compound 220, 2-amino-1′-[4-[[(1R)-1-(2-amino-3-pyridyl)ethyl]-(2,2-difluoroethyl)amino]-6-[[1-[(dimethylamino)methyl]-2,2-difluoro-cyclopropyl]methoxy]-1,3,5-triazin-2-yl]spiro[6H-thieno[3,4-b]thiophene-4,3′-azetidine]-3-carbonitrile], the IC50 [1] was under 0.01 µM and the IC50 [2] was under 0.01 µM.

For `CC(O)CN(c1nc(OC[C@@]23CCCN2C[C@H](F)C3)nc(N2CC3(C2)SCc2sc(N)c(C#N)c23)n1)C1(C#N)CC1` (stereo partly drawn) [Compound 261, 2-amino-1′-[4-[(1-cyanocyclopropyl)-(2-hydroxypropyl)amino]-6-[[(2R,8S)-2-fluoro-1,2,3,5,6,7-hexahydropyrrolizin-8-yl]methoxy]-1,3,5-triazin-2-yl]spiro[6H-thieno[3,4-b]thiophene-4,3′-azetidine]-3-carbonitrile], the IC50 [1] was under 0.01 µM and the IC50 [2] was under 0.01 µM.

For `N#Cc1c(N)sc2c1C1(CN(c3nc(OC[C@@]45CCCN4C[C@H](F)C5)nc(N4C5CCC4COC5)n3)C1)SC2` (racemic) [Compound 274, 2-amino-1′-[4-(3-oxa-8-azabicyclo[3.2.1]octan-8-yl)-6-[[rac-(2R,8S)-2-fluoro-1,2,3,5,6,7-hexahydropyrrolizin-8-yl]methoxy]-1,3,5-triazin-2-yl]spiro[6H-thieno[3,4-b]thiophene-4,3′-azetidine]-3-carbonitrile], the IC50 [1] was 0.1 to 1 µM and the IC50 [2] was 0.01 to 0.1 µM.
